Results reported in PMC5382548 (Scientific Reports, 2015).
“Also recorded” adds a separate entry of the source.

Tests used:
[1] = test system: F21T G4 (human telomeric sequence); experiment: FRET melting assay, F21T telomeric G4; format: binding; conditions: G4 0.2 μM, ligand 1 μM
Experimental: Two compounds 2d and 3e were selected and evaluated for their ability to stabilize the 32-mer sequence in the NHE of the human KRAS promoter (KRAS32R)[12], two G4 motifs in the 5′UTR of KRAS mRNA (UTR-1 and UTR-2)[24] and a 21-mer DNA G4 from the human telomeric sequence (F21T). The KRAS32R sequence has been described as forming two G4 structures which exist in equilibrium. One sequence folds into a G4 (Q1) with a Tm of ~55°C that is disrupted on increasing the temperature and then, the full-length 32-mer sequence folds into a new G4 (Q2, Tm of ~72°C)[13]. In our assay, the KRAS32R sequence (in the presence or absence of IQcs) folded in a single G4 structure (Tm ≈ 54°C), as shown by the single inflection for the first derivative of the FRET melting data (Sup. Inf.; Figure S4). This monophasic behaviour was also observed in the presence of TMPyP4[13].
Oligonucleotide sequences were purchased from Eurofins MWG Synthesis GmbH, Germany or STAB VIDA Genomics Lab, Caparica, Lisbon, Portugal. The labelled oligonucleotides used in the FRET assays had attached the donor fluorophore FAM (6-carboxyfluorescein) and the acceptor fluorophore TAMRA (6-carboxytetramethylrhodamine): KRAS21R: 5′-FAM-[…]-TAMRA-3′; KRAS32R: 5′-FAM-[…]-TAMRA-3′; UTR-1: 5′-FAM-GCGGCGGCGGAGG-TAMRA-3′; UTR-2: 5′-FAM-[…]-TAMRA-3; T-Loop:5′-FAM-[…]-TAMRA-3′; F21T: 5′-FAM-[…]-TAMRA-3′. Non-labelled oligonucleotides were used in FRET competition assays and in the spectroscopic studies: ds26: - d(5′-CAATCGGATCGAATT CGATCCGATTG-3′); KRAS21R: 5′-[…]-3′; HT21: 5′-[…]-3′. Each oligonucleotide was initially diluted to a storage solution at 100 μM in nuclease-free water (not DEPC-treated), purchased from Ambion Applied Biosystems UK.
The ability of indolo[3,2-c]quinolines to stabilize DNA sequences was investigated using a Fluorescence Resonance Energy Transfer (FRET) assay as reported elsewhere.

[2] = test system: KRAS mRNA in HCT116 cells; experiment: KRAS mRNA steady-state levels, Taqman real-time RT-PCR, HCT116; format: cell-based, human; conditions: 72 h; for Reduction of KRAS mRNA steady-state levels, HCT116: equitoxic (IC50) concentrations (TMPyP4 12 μM)
Experimental: The effects of compounds on KRAS transcription in colon cancer cells (HCT116 and SW620) were evaluated by quantifying KRAS mRNA steady-state levels using Taqman real-time RT-PCR.
(a) KRAS mRNA steady-state expression was evaluated by Taqman Real-time RT-PCR using specific Taqman Assays for KRAS and β-Actin for normalization. KRAS mRNA steady-state expression levels were calculated by the ΔΔCt method, using DMSO (vehicle control) for calibration; and (b) KRAS protein steady-state expression evaluated by immunoblot relative to control (DMSO vehicle) Results are expressed as mean ± SEM of at least three independent experiments; *p < 0.05 and §p < 0.01 from DMSO (vehicle control).
HCT116, SW620 and HEK293 T cells were seeded in 35 mm plates at 150000 cells per well. […] After 72 h of compound exposure, cells were collected and processed for total RNA extraction using TRIZOL reagent (Invitrogen) according to the manufacturer's instructions. Samples were homogenized in TRIZOL reagent using a motor-driven Bio-vortexer (No1083; Biospec Products, Bartlesfield, OK) and disposable RNAse/DNAse free sterile pestles (Thermo Fisher Scientific, Inc., Chicago, IL). […] Evaluation of steady-state expression of KRAS mRNA was performed by Taqman Real-time PCR assay, detailed in Supplementary Information.
Total RNA extraction and Taqman real-time RT-PCR
Taqman Real-time PCR reactions were performed using 1.5 µg of total RNA, using High Capacity RNA to cDNA kit, according to the manufacturer`s instruction. Next, Real-time PCR reactions were performed using Taqman Universal Master Mix II, no UNG, and primers specific to human KRAS (assay ID Hs00000174_rf, # 4465807) primers and to Human β- Actin (ACTB # 401846) for normalization to endogenous control (both from Applied Biosystems Inc). Triplicate reactions were run per sample. Data was collected with 7300 System Sequence Detection Software, version 1.2.3 (Applied Biosystems Inc). The comparative threshold cycle method was used to calculate the amplification factor, where the threshold cycle (Ct) is defined as the cycle number at which the fluorescence passes the fixed threshold intensity level. KRAS expression levels in different samples were calculated on the basis of ΔΔCt method. For each cell line, vehicle control (DMSO) was used as the calibrator. The n-fold change in KRAS expression was obtained using the formula: 2-ΔΔCt. […]
SW620 and HEK293 T cells were seeded in 24-well plates 50,000cells/well. Twenty-four hours later, cells were exposed to compounds for 72 h. After treatment, cell culture supernatants were collected and adherent cells were detached with TrypLE (Invitrogen).
Next, detached cells were pooled with cell culture supernatants and centrifuged for 5 min (650 g). […]

Row | SMILES | ΔTm F21T [1] [°C] | KRAS mRNA levels reduced to (% remaining) ([2]; IC50 concentration, cell line not given) | Reduction of KRAS mRNA steady-state levels, HCT116 [2]
1 | Cn1cc2c3ccccc3nc-2c2cc(Br)ccc21 [2a, 2-bromo-5-methyl-indolo[3,2-c]quinoline] | 5.6 | – | –
2 | CCN(CC)CCCNc1ccc2c(c1)c1[nH]c3ccccc3c1c[n+]2C [2d] | 17.7 | ~ 10% | 90%
3 | C[n+]1ccc(-c2c3nc(c(-c4cc[n+](C)cc4)c4ccc([nH]4)c(-c4cc[n+](C)cc4)c4ccc([nH]4)c(-c4cc[n+](C)cc4)c4nc2C=C4)C=C3)cc1 [TMPyP4, reference compound] | – | – | no ability to repress KRAS transcription; also recorded: did not inhibit KRAS transcription
4 | CCN(CC)CCCNc1ccc2[nH]c3c(c[n+](C)c4ccc(NCCCN(CC)CC)cc34)c2c1.[Cl-] [3d] | – | – | 25%
5 | CCN(CC)CCCNc1ccc2c(c1)[nH]c1c2c[n+](C)c2ccc(NCCCN(CC)CC)cc12.[Cl-] [3e] | 30.7 | – | –
